Reference: patent publication US20090042820A1, “Tubulin Binding Anti Cancer Agents And Prodrugs Thereof” (Threshold Pharmaceuticals, Inc., priority 2004, published 2009)
Where two headings read alike, the source gives them in different places.

Assays:
H460 cells = test: Alamar Blue antiproliferation assay, H460 cell line; format: cell-based, human; settings: Homo sapiens
Experimental: (§1) To determine the effect of the compounds of the present invention on cell proliferation, the antiproliferative activity of these compounds was tested in a multi-well Alamar Blue based assay (at 2 h and 3 days). Cell growth in the presence and absence of the test compound as tabulated in Table 1 was compared, as measured by a fluorescence plate reader at excitation 550 nm and emission 590 nm (see Biosource International Inc., Tech Application Notes, Use of Alamar Blue in the measurement of Cell Viability and Toxicity, Determining IC50). H460 cells (ATCC HTB-177 ([…]), 4,000 cells/well/200 μl) and LNCap cells (ATCC CRL-1740, 6,000 cells/well/200 μl) were seeded in a 96 well plate in RPMI medium (Invitrogen Corporation, Carlsbad, Calif.). After 24 hours, these plates were divided into 3 groups—Control group, 2 h treatment group and 3 day treatment group.
(§2) In the 2 h treatment group, after 2 h the cells were rinsed to remove the test compound and incubated for 3 days, followed by staining with AlamarBlue. The cells in the 3-day treatment group were incubated for 3 days, followed by staining with AlamarBlue. In the Control group, AlamarBlue was added to the plate at (i) day 0 and (ii) day 3 and measured to establish the control reading. In all the groups, the capacity of the cells to proliferate was measured 6 hours after addition of AlamarBlue by a fluorescence plate reader at excitation 550 nm and emission 590 nm.

MES-SA/DX5 = test: Alamar Blue antiproliferation assay, MES-SA/DX5; format: cell-based; settings: Homo sapiens, 72 h; MES-SA/DX5, 3 Day
HT29 = test: Alamar Blue antiproliferation assay, HT29; format: cell-based; settings: Homo sapiens, HT-29, 72 h; HT29, 3 Day
MES-SA = test: Alamar Blue antiproliferation assay, MES-SA; format: cell-based; settings: Homo sapiens, 72 h, 3 Day
cancer cell = test: Cancer cell antiproliferation assay (cell line not stated); format: cell-based; settings: summary statement; read-out: GI50 or IC50 in a cancer cell antiproliferation assay
Experimental: In one aspect, the present invention provides a compound of formula (I-VII) having a GI50, GI90, IC50, or IC50 of about 0.001 to about 1000 nM, about 0.01 to about 100 nm, about 0.1 to about 50 nM, and about 1 to about 10 nM in a cancer cell antiproliferation assay. In one embodiment, the present invention provides a compound of formula (I) having a GI50 or IC50 of about 0.01 to about 100 nm, about 0.1 to about 50 nm, and about 1 to about 10 nm in a cancer cell antiproliferation assay. In various embodiments, said antiproliferation assays employ cancer cell including but not limited to gastric, colon, breast, and non-small cell lung cancer. In various embodiments, the […] cancer cell used is MESSA or doxorubicin resistant MESSA/DX5 cell; the colon cancer cell is HT29 cell; the breast cancer cell is T47D cell; and the non-small cell lung cancer cell is H460 cell.
as §1, §2

[1] = NCI-H460, 2 h treatment, then 3 days incubation, read-out: GI50 (nM) 2 Hour
[2] = NCI-H460, 2 h treatment, then 3 days incubation, read-out: GI90 (nM) 2 Hour
[3] = NCI-H460, 72 h, 3 day treatment, read-out: GI50 (nM) 3 Days
[4] = NCI-H460, 72 h, 3 day treatment, read-out: GI90 (nM) 3 Day

Row | Structure (SMILES) | GI50 (H460 cells; [1]) | IC90 (H460 cells; [2]) | GI50 (H460 cells; [3]) | IC90 (H460 cells; [4]) | GI50 (MES-SA/DX5) | GI50 (HT29) | GI50 (MES-SA) | IC50 (cancer cell)
1 | COc1ccc2c(C(=O)c3cc(OC)c(OC)c(OC)c3)n[nH]c2c1 [Compound 9] | > 1000 nM | > 1000 nM | 100 nM | 316 nM | – | – | – | –
2 | COc1ccc2c(/C(=N/N)c3cc(OC)c(OC)c(OC)c3)n[nH]c2c1 [Compound 10] | > 1000 nM | > 1000 nM | 398 nM | 1000 nM | – | – | – | –
3 | COc1ccc2c(/C(=N/O)c3cc(OC)c(OC)c(OC)c3)n[nH]c2c1 [Compound 11] | > 1000 nM | > 1000 nM | 631 nM | > 1000 nM | – | – | – | –
4 | COc1ccc2c(C(=O)c3cc(OC)c(OC)c(OC)c3)nn(C)c2c1 [Compound 12] | > 1000 nM | > 1000 nM | > 1000 nM | > 1000 nM | – | – | – | –
5 | COc1ccc2c(C(=O)c3cc(OC)c(OC)c(OC)c3)n(C)nc2c1 [Compound 13] | > 1000 nM | > 1000 nM | > 1000 nM | > 1000 nM | – | – | – | –
6 | COc1ccc2c(C(=O)c3cc(OC)c(OC)c(OC)c3)n(Cc3ccccc3)nc2c1 [Compound 17] | > 1000 nM | > 1000 nM | > 1000 nM | > 1000 nM | – | – | – | –
7 | COc1ccc2c(c1)N=N/C2=C/c1cc(OC)c(OC)c(OC)c1 [Compound 19] | > 10000 nM | > 1000 nM | > 1000 nM | > 1000 nM | – | – | – | –
8 | COc1ccc2c(C(=O)c3cc(OC)c(OC)c(OC)c3)nn(C(=O)c3ccccc3)c2c1 [Compound 20] | 630 nM | – | 100 nM | – | – | – | – | –
9 | COc1cc(C(=O)c2n[nH]c3c(Cl)c(OC)ccc23)cc(OC)c1OC [Compound 21] | > 10000 nM | – | 40 nM | – | – | – | – | –
10 | COc1cc(C(=O)c2n[nH]c3c(I)c(OC)ccc23)cc(OC)c1OC [Compound 22] | > 10000 nM | – | 40 nM | – | – | – | – | –
11 | COc1ccc2c(C(=O)c3cc(OC)c(OC)c(OC)c3)nn(S(=O)(=O)c3ccc([N+](=O)[O-])cc3)c2c1 [Compound 23] | 630 nM | – | 100 nM | – | – | – | – | –
12 | COc1ccc2c(C(=O)c3cc(OC)c(OC)c(OC)c3)nn(S(=O)(=O)c3ccc(N)cc3)c2c1 [Compound 24] | 10000 nM | – | 501 nM | – | – | – | – | –
13 | COc1ccc2c(C(=O)c3cc(OC)c(OC)c(OC)c3)nn(S(=O)(=O)c3cccc4ccccc34)c2c1 [Compound 25] | > 10000 nM | – | 630 nM | – | – | – | – | –
14 | COc1ccc2c(C(=O)c3cc(OC)c(OC)c(OC)c3)nn(S(=O)(=O)c3ccc4ccccc4c3)c2c1 [Compound 26] | > 10000 nM | – | 630 nM | – | – | – | – | –
15 | COc1ccc2c(C(=O)c3cc(OC)c(OC)c(OC)c3)nn(P(=O)(OCc3ccccc3)OCc3ccccc3)c2c1 [Compound 27] | > 10000 nM | – | 251 nM | – | – | – | – | –
16 | COc1ccc2c(C(=O)c3cc(OC)c(OC)c(OC)c3)nn(S(=O)(=O)c3ccc(O)cc3)c2c1 [Compound 29] | > 10000 nM | – | 630 nM | – | – | – | – | –
17 | COc1cc(C(=O)c2n[nH]c3c(S(=O)(=O)c4ccc(OCc5ccccc5)cc4)c(OC)ccc23)cc(OC)c1OC [Compound 31] | > 10000 nM | – | > 10000 nM | – | – | – | – | –
18 | COc1ccc2c3n(nc2c1)Cc1c(cc(OC)c(OC)c1OC)C3=O [Compound 32] | > 10000 nM | – | > 10000 nM | – | – | – | – | –
19 | COc1ccc2c(C(=O)c3cc(OC)c(OC)c(OC)c3)nn(S(=O)(=O)Cc3ccc([N+](=O)[O-])cc3)c2c1 [Compound 33] | > 10000 nM | – | 1000 nM | – | – | – | – | –
20 | COc1ccc2c(C(=O)c3cc(OC)c(OC)c(OC)c3)nn(C(=O)Cc3ccc(OCc4ccccc4)cc3)c2c1 [Compound 34] | > 10000 nM | – | 126 nM | – | – | – | – | –
21 | COc1cc(C(=O)c2n[nH]c3c(C#CC(C)(C)O)c(OC)ccc23)cc(OC)c1OC [Compound 36] | > 10000 nM | – | 63 nM | – | – | – | – | –
22 | COc1cc(C(=O)c2n[nH]c3c(C#CC(=O)O)c(OC)ccc23)cc(OC)c1OC [Compound 37] | 501 nM | – | 3.2 nM | – | 3.5 nM | 5 nM | 3.2 nM | 1 to 50 nM
23 | COc1cc(C(=O)c2nn(Cc3ncc([N+](=O)[O-])n3C)c3c(Br)c(OC)ccc23)cc(OC)c1OC [Compound 38] | > 10000 nM | – | 631 nM | – | – | – | – | –
24 | COc1ccc2[nH]nc(C(=O)c3cc(OC)c(OC)c(OC)c3)c2c1 [Compound 42] | > 1000 nM | > 1000 nM | > 1000 nM | > 1000 nM | – | – | – | –
